Measured values as given in patent US7745619B2, “Vinca derivatives” (priority 2003, dated 2010).
Read-outs that look alike come from different tables or passages of the source.

Assays:
PC-3 = assay: NCI 60-cell line growth inhibition assay: PC-3; type: cell-based; conditions: Homo sapiens, Prostate, read-out: GI50
OVCAR-8 = assay: NCI 60-cell line growth inhibition assay: OVCAR-8; type: cell-based; conditions: Homo sapiens, Ovarian, read-out: GI50
NCI/ADR-RES = type: cell-based; conditions: Homo sapiens, Breast, read-out: GI50
DU-145 = assay: NCI 60-cell line growth inhibition assay: DU-145; type: cell-based; conditions: Homo sapiens, Prostate, read-out: GI50
SW-620 = assay: NCI 60-cell line growth inhibition assay: SW-620; type: cell-based; conditions: Homo sapiens, Colon, read-out: GI50
KM12 = assay: NCI 60-cell line growth inhibition assay: KM12; type: cell-based; conditions: Homo sapiens, Colon, read-out: GI50
MDA-MB-435 = assay: NCI 60-cell line growth inhibition assay: MDA-MB-435; type: cell-based; conditions: Homo sapiens, Breast, read-out: GI50
SK-OV-3 = assay: NCI 60-cell line growth inhibition assay: SK-OV-3; type: cell-based; conditions: Homo sapiens, Ovarian, read-out: GI50
TK-10 = assay: NCI 60-cell line growth inhibition assay: TK-10; type: cell-based; conditions: Homo sapiens, Renal, read-out: GI50
SNB-19 = assay: NCI 60-cell line growth inhibition assay: SNB-19; type: cell-based; conditions: Homo sapiens, CNS, read-out: GI50
RXF 393 = assay: NCI 60-cell line growth inhibition assay: RXF 393; type: cell-based; conditions: Homo sapiens, Renal, read-out: GI50
OVCAR-4 = assay: NCI 60-cell line growth inhibition assay: OVCAR-4; type: cell-based; conditions: Homo sapiens, Ovarian, read-out: GI50
M14 = assay: NCI 60-cell line growth inhibition assay: M14; type: cell-based; conditions: Homo sapiens, Melanoma, read-out: GI50
SK-MEL-2 = assay: NCI 60-cell line growth inhibition assay: SK-MEL-2; type: cell-based; conditions: Homo sapiens, Melanoma, read-out: GI50
SNB-75 = assay: NCI 60-cell line growth inhibition assay: SNB-75; type: cell-based; conditions: Homo sapiens, CNS, read-out: GI50
MDA-MB-231/ATCC = assay: NCI 60-cell line growth inhibition assay: MDA-MB-231/ATCC; type: cell-based; conditions: Homo sapiens; Breast, MDA-MB-231/ATCC; read-out: GI50
MOLT-4 = assay: NCI 60-cell line growth inhibition assay: MOLT-4; type: cell-based; conditions: Homo sapiens, Leukemia, read-out: GI50
NCI-H522 = type: cell-based; conditions: Homo sapiens, Non-Small Cell Lung, read-out: GI50
MALME-3M = assay: NCI 60-cell line growth inhibition assay: MALME-3M; type: cell-based; conditions: Homo sapiens; Melanoma, MALME-3M; read-out: GI50
EKVX = assay: NCI 60-cell line growth inhibition assay: EKVX; type: cell-based; conditions: Homo sapiens, Non-Small Cell Lung, read-out: GI50
SK-MEL-5 = assay: NCI 60-cell line growth inhibition assay: SK-MEL-5; type: cell-based; conditions: Homo sapiens, Melanoma, read-out: GI50
A549/ATCC = assay: NCI 60-cell line growth inhibition assay: A549/ATCC; type: cell-based; conditions: Homo sapiens; Non-Small Cell Lung, A549/ATCC; read-out: GI50
LOX IMVI = assay: NCI 60-cell line growth inhibition assay: LOX IMVI; type: cell-based; conditions: Homo sapiens, Melanoma, read-out: GI50
SF-539 = assay: NCI 60-cell line growth inhibition assay: SF-539; type: cell-based; conditions: Homo sapiens; CNS, SF-539; read-out: GI50
HCC-2998 = assay: NCI 60-cell line growth inhibition assay: HCC-2998; type: cell-based; conditions: Homo sapiens; Colon, HCC-2998; read-out: GI50
K-562 = assay: NCI 60-cell line growth inhibition assay: K-562; type: cell-based; conditions: Homo sapiens, K562; Leukemia, K-562; read-out: GI50
COLO 205 = assay: NCI 60-cell line growth inhibition assay: COLO 205; type: cell-based; conditions: Homo sapiens, Colon, read-out: GI50
CAKI-1 = assay: NCI 60-cell line growth inhibition assay: CAKI-1; type: cell-based; conditions: Homo sapiens, Renal, read-out: GI50
HT29 = assay: NCI 60-cell line growth inhibition assay: HT29; type: cell-based; conditions: Homo sapiens, HT-29; Colon, HT29; read-out: GI50
U251 = assay: NCI 60-cell line growth inhibition assay: U251; type: cell-based; conditions: Homo sapiens, U-251; CNS, U251; read-out: GI50
HOP-92 = assay: NCI 60-cell line growth inhibition assay: HOP-92; type: cell-based; conditions: Homo sapiens, Non-Small Cell Lung, read-out: GI50
SF-295 = assay: NCI 60-cell line growth inhibition assay: SF-295; type: cell-based; conditions: Homo sapiens, CNS, read-out: GI50
OVCAR-5 = assay: NCI 60-cell line growth inhibition assay: OVCAR-5; type: cell-based; conditions: Homo sapiens, Ovarian, read-out: GI50
NCI-H460 = type: cell-based; conditions: Homo sapiens, Non-Small Cell Lung, read-out: GI50
UACC-62 = assay: NCI 60-cell line growth inhibition assay: UACC-62; type: cell-based; conditions: Homo sapiens, Melanoma, read-out: GI50
NCI-H23 = type: cell-based; conditions: Homo sapiens, Non-Small Cell Lung, read-out: GI50
OVCAR-3 = assay: NCI 60-cell line growth inhibition assay: OVCAR-3; type: cell-based; conditions: Homo sapiens, Ovarian, read-out: GI50
UACC-257 = assay: NCI 60-cell line growth inhibition assay: UACC-257; type: cell-based; conditions: Homo sapiens, Melanoma, read-out: GI50
UO-31 = assay: NCI 60-cell line growth inhibition assay: UO-31; type: cell-based; conditions: Homo sapiens, Renal, read-out: GI50
HS 578T = assay: NCI 60-cell line growth inhibition assay: HS 578T; type: cell-based; conditions: Homo sapiens; Breast, HS 578T; read-out: GI50
HCT-116 = assay: NCI 60-cell line growth inhibition assay: HCT-116; type: cell-based; conditions: Homo sapiens, Colon, read-out: GI50
ACHN = assay: NCI 60-cell line growth inhibition assay: ACHN; type: cell-based; conditions: Homo sapiens, Renal, read-out: GI50
A498 = assay: NCI 60-cell line growth inhibition assay: A498; type: cell-based; conditions: Homo sapiens, Renal
Source text: The following data in Table 4 summarize the growth inhibition properties of several compounds of the present invention against 60-human transformed cell lines.

SN12C = assay: NCI 60-cell line growth inhibition assay: SN12C; type: cell-based; conditions: Homo sapiens, Renal, read-out: GI50
786-0 = assay: NCI 60-cell line growth inhibition assay: 786-0; type: cell-based; conditions: Homo sapiens, Renal, read-out: GI50
HCT-15 = assay: NCI 60-cell line growth inhibition assay: HCT-15; type: cell-based; conditions: Homo sapiens, Colon, read-out: GI50
HOP-62 = assay: NCI 60-cell line growth inhibition assay: HOP-62; type: cell-based; conditions: Homo sapiens, Non-Small Cell Lung, read-out: GI50
BT-549 = assay: NCI 60-cell line growth inhibition assay: BT-549; type: cell-based; conditions: Homo sapiens, Breast, read-out: GI50
MCF7 = assay: NCI 60-cell line growth inhibition assay: MCF7; type: cell-based; conditions: Homo sapiens, Breast, read-out: GI50
MCF-7 cells = assay: MCF-7 GI50 determination (crystal violet growth inhibition); type: cell-based, human; conditions: Homo sapiens, MCF7, 96 h
Summary of the method: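 MCF-7 cells seeded at 2×10^4 cells/well, grown 24 h drug-free, then exposed to 10-fold compound dilutions for 4 days. Glutaraldehyde-fixed cells stained with crystal violet, absorbance read at 570 nm; GI=100×(T/T0) against day-0 control OD, GI50 from growth inhibition versus concentration plots.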

HeLa S-3 cells = assay: HeLa GI50 determination (SRB growth inhibition); type: cell-based, human; conditions: Homo sapiens, HeLa S3, 48 h
Summary of the method: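 Cells plated at 2×10^4/well; day-0 plate TCA-fixed, test compounds added at 10-fold dilutions for 2 days. SRB staining, absorbance at 490 nm; GI = 100×(T−T0)/(C−T0), GI50 from growth inhibition vs. concentration plots.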

[1] = read-out: MCF-7 Cells GI50 (nM)
[2] = MCF-7 cells, 4 days of treatment, crystal violet, read-out: MCF-7 Cells GI50
[3] = HeLa S-3 cells, 2 days of treatment, sulforhodamine B, read-out: HeLa Cells GI50

With `C#Cc1ccc2[nH]c3c(c2c1)CCN1C[C@H](C[C@@](O)(CC)C1)C[C@]3(C(=O)OC)c1cc2c(cc1OC)N(C)[C@H]1[C@@](O)(C(=O)OC)[C@H](OC(C)=O)[C@]3(CC)C=CCN4CC[C@]21[C@@H]43` [Example 17, 12′-ethynylvinblastine] the GI50 (PC-3) was under 0.01 µM, the GI50 (OVCAR-8) was under 0.01 µM and the GI50 (NCI/ADR-RES) was 2.09 µM. The GI50 (DU-145) was under 0.01 µM, the GI50 (SW-620) was under 0.01 µM and the GI50 (KM12) was under 0.01 µM. For the same compound, the GI50 (MDA-MB-435) was under 0.01 µM, the GI50 (SK-OV-3) was under 0.01 µM and the GI50 (TK-10) was under 0.01 µM. The GI50 (SNB-19) was under 0.01 µM, the GI50 (RXF 393) was under 0.01 µM and the GI50 (OVCAR-4) was 0.0153 µM. For the same compound, the GI50 (M14) was under 0.01 µM, the GI50 (SK-MEL-2) was under 0.01 µM and the GI50 (SNB-75) was under 0.01 µM. The GI50 (MDA-MB-231/ATCC) was under 0.01 µM, the GI50 (MOLT-4) was under 0.01 µM and the GI50 (NCI-H522) was under 0.01 µM. The GI50 (MALME-3M) was under 0.01 µM, the GI50 (EKVX) was under 0.01 µM and the GI50 (SK-MEL-5) was under 0.01 µM. It also gave a GI50 (A549/ATCC) of 0.0169 µM, a GI50 (LOX IMVI) of under 0.01 µM and a GI50 (SF-539) of under 0.01 µM. It also gave a GI50 (HCC-2998) of under 0.01 µM, a GI50 (K-562) of 0.0531 µM and a GI50 (COLO 205) of under 0.01 µM. The GI50 (CAKI-1) was 0.0734 µM, the GI50 (HT29) was under 0.01 µM and the GI50 (U251) was under 0.01 µM. The GI50 (HOP-92) was 0.16 µM, the GI50 (SF-295) was under 0.01 µM and the GI50 (OVCAR-5) was under 0.01 µM. It also gave a GI50 (NCI-H460) of under 0.01 µM, a GI50 (UACC-62) of under 0.01 µM and a GI50 (NCI-H23) of under 0.01 µM. For the same compound, the GI50 (OVCAR-3) was under 0.01 µM, the GI50 (UACC-257) was 22.4 µM and the GI50 (UO-31) was 0.0986 µM. It also gave a GI50 (HS 578T) of under 0.01 µM, a GI50 (HCT-116) of under 0.01 µM and a GI50 (ACHN) of under 0.01 µM. For the same compound, the GI50 (A498) was under 0.01 µM, the GI50 (SN12C) was under 0.01 µM and the GI50 (786-0) was under 0.01 µM. It also gave a GI50 (HCT-15) of 0.044 µM, a GI50 (HOP-62) of under 0.01 µM and a GI50 (BT-549) of under 0.01 µM. The GI50 (MCF7) was under 0.01 µM.
`CC[C@]1(O)C[C@H]2CN(CCc3c([nH]c4ccc(SCc5ccccc5Cl)cc34)[C@@](C(=O)OC)(c3cc4c(cc3OC)N(C=O)[C@H]3[C@@](O)(C(=O)OC)[C@H](OC(C)=O)[C@]5(CC)C=CCN6CC[C@]43[C@@H]65)C2)C1` [Example 37, 12′-(2-chlorobenzylsulfanyl)vinblastine] gave a GI50 (MCF-7 cells; [1]) of 200 nM, a GI50 (HeLa S-3 cells; read-out: HeLa Cells GI50 (nM)) of 100 nM and a melting point of 168 to 170 °C.
With `CCCCC#Cc1ccc2[nH]c3c(c2c1)CCN1C[C@H](C[C@@](O)(CC)C1)C[C@]3(C(=O)OC)c1cc2c(cc1OC)N(C)[C@H]1[C@@](O)(C(=O)OC)[C@H](OC(C)=O)[C@]3(CC)C=CCN4CC[C@]21[C@@H]43` [Example 23, 12′-hexynylvinblastine] the GI50 (MCF-7 cells; [2]) was 50 nM and the GI50 (HeLa S-3 cells; [3]) was 40 nM.
`CC[C@]1(O)C[C@H]2CN(CCc3c([nH]c4ccc(C(=O)CC(C)C)cc34)[C@@](C(=O)OC)(c3cc4c(cc3OC)N(C=O)[C@H]3[C@@](O)(C(=O)OC)[C@H](OC(C)=O)[C@]5(CC)C=CCN6CC[C@]43[C@@H]65)C2)C1` [Example 71, 12′-(3-methylbutanoyl) vincristine] gave a GI50 (MCF-7 cells; [1]) of 100 nM and a GI50 (HeLa S-3 cells; read-out: HeLa Cells GI50 (nM)) of 200 nM.
For `CC[C@]1(O)C[C@H]2CN(CCc3c([nH]c4ccc(SCCC(=O)OC)cc34)[C@@](C(=O)OC)(c3cc4c(cc3OC)N(C=O)[C@H]3[C@@](O)(C(=O)OC)[C@H](OC(C)=O)[C@]5(CC)C=CCN6CC[C@]43[C@@H]65)C2)C1` [Example 47, 12′-(methoxycarbonylethylsulfanyl) vincristine], the GI50 (MCF-7 cells; [1]) was 40 nM and the GI50 (HeLa S-3 cells; read-out: HeLa Cells GI50 (nM)) was 20 nM.
With `CC[C@]1(O)C[C@H]2CN(CCc3c([nH]c4ccc(C)cc34)[C@@](C(=O)OC)(c3cc4c(cc3OC)N(C=O)[C@H]3[C@@](O)(C(=O)OC)[C@H](OC(C)=O)[C@]5(CC)C=CCN6CC[C@]43[C@@H]65)C2)C1` [Example 76, 12′-methylvincristine] the GI50 (MCF-7 cells; [2]) was 3 nM and the GI50 (HeLa S-3 cells; [3]) was 1 nM.
`CCc1cc2[nH]c3c(c2cc1C)CCN1C[C@H](C[C@@](O)(CC)C1)C[C@]3(C(=O)OC)c1cc2c(cc1OC)N(C=O)[C@H]1[C@@](O)(C(=O)OC)[C@H](OC(C)=O)[C@]3(CC)C=CCN4CC[C@]21[C@@H]43` [Example 94, 13′-ethyl-12′-methyl vincristine] gave a GI50 (MCF-7 cells; [1]) of 50 nM and a GI50 (HeLa S-3 cells; read-out: HeLa Cells GI50 (nM)) of 30 nM.
